Results: patent US6476012B2, “Estradiol-16α-carboxylic acid esters as locally active estrogens” (Yale University, priority 2001, dated 2002)
“And” between values parts separate entries of the source, which are not always exact repeats. Identical values can stand only once. Counter-ions that a name gives are not always drawn.

Assays:
[1] = tested on: alkaline phosphatase (AlkP) induction in Ishikawa cells; assay: Estrogenic potency in Ishikawa cells: induction of AlkP; format: cell-based, human; details: for Ishikawa Cell AlkP RSA (relative stimulatory activity): induction of AlkP, E2 = 100, ± S.D.
Experimental: Estrogenic Potency in Ishikawa Cells. The estrogenic potency of the E2-analogs was determined in a estrogen bioassay, the induction of AlkP in human endometrial adenocarcinoma cells (Ishikawa) grown in 96-well microtiter plates as we have previously described.^28 In short, the cells are grown in phenol red free medium with estrogen depleted (charcoal stripped) bovine serum in the presence or absence of varying amounts of the steroids. […] After 3 days, the cells are washed, frozen and thawed, and then incubated with 5 mM p-nitrophenyl phosphate, a chromogenic substrate for the AlkP enzyme, at pH 9.8. To ensure linear enzymatic analysis, the plates are monitored kinetically for the for the production of p-nitrophenol at 405 nm. The relative stimulatory activity is determined by analysis of the curve fitting program Prism. Each compound was analyzed in at least 3 separate experiments performed in duplicate.

[2] = target: T1, ER in rat uterine cytosol (ERα) (Rattus norvegicus, UniProt P06211); assay: Competitive binding to the ER in rat uterine cytosol (RBA vs [3H]E2); details: for ER RBA (relative binding affinity): rat uterine estrogen receptor assay, E2 = 100, ± S.D.; for binding to the ER / RBA: uterine cytosol (ERα); for RBA: relative to E2
T1 construct: The uterus was removed and homogenized in ice-cold TEGDMo buffer; from tissue; host or cells: uterine cytosol of castrated female Sprague Dawley rats
T1 sequence (P06211 1-600): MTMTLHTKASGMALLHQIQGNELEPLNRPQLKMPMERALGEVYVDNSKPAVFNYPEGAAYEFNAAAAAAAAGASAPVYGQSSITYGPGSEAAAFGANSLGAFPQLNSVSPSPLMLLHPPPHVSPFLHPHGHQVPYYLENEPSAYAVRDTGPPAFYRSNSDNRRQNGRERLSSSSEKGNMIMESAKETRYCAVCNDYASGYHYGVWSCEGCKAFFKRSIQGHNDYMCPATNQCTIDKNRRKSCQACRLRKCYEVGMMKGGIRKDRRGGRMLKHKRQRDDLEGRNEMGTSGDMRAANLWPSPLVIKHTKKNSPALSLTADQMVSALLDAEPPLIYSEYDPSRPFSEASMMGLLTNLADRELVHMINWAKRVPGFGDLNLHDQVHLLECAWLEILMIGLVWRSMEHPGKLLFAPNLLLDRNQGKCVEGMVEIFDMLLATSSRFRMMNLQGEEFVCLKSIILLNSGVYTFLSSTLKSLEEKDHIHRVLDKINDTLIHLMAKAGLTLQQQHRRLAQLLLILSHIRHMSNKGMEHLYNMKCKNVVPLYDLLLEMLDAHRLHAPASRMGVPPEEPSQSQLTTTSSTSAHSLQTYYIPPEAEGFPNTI
Experimental: Competitive Binding to the Estrogen Receptor ERα and ERβ. […] The ER in uterine cytosol is ERα the classical form of the ER.^38 Female Sprague Dawley rats were castrated and sacrificed 24 h later. The uterus was removed and homogenized in ice-cold TEGDMo buffer (10 mM Tris, 1.5 mM Na2-EDTA, 10% (v/v) glycerol, 1.0 mM dithiothreitol, 25 mM sodium molybdate, pH 7.4 at 4° C.). and centrifuged at 105,000 g for 45 min at 4° C. The supernatant (cytosol) was frozen on dry ice and stored at −80° C. until assay. […] Incubations were carried out on ice overnight and bound radioactivity was separated from free by adsorption with dextran coated charcoal and quantified by counting.^26 Relative Binding Affinity (RBA) was determined by analysis of the displacement curves by the curve-fitting program Prism (Graph-Pad Software inc., San Diego, Calif.). The results shown in Table 1. below, are from at least 3 separate experiments performed in duplicate.

[3] = tested on: esterase(s) in rat hepatic microsomes; assay: Esterase assay with rat hepatic microsomes; format: in vitro ADME; details: rat hepatic microsomes, E16-1,2 = 100; ± S.D.
Experimental: Esterase. Esterase activity was measured in rat hepatic microsomes essentially using the conditions described.^39 Liver obtained from Sprague-Dawley rats was washed with phosphate buffered saline and homogenized in 3 volumes of cold 0.25 M sucrose and centrifuged at 700 g for 10 min and then at 10,000 g for 20 min. The resulting supernatant was centrifuged at 105,000 g for 60 min. The pellet was suspended in 0.1 M phosphate buffer pH 7.4 and washed by centrifugation at 105,000 g for 60 min. The washed pellet was suspended in 0.1 M Tris-HCl pH 8.0 at a concentration of ˜13 mg protein/ml and frozen at −80° C. For assay, the pellets were thawed and diluted with the same buffer. The incubation mixture consisted of the microsomal enzyme preparation, 0.28 mg protein/ml, E2-16α-alkyl esters, 50 μM, added in 10 μL of ethanol, all in a final volume of 1 mL of Tris buffer pH 8.0. Since the rates of reaction are widely different for the various esters, the incubation times were varied accordingly to obtain linear kinetics. At several appropriate time points, 100 μL aliquots were withdrawn and the reaction was quenched with 33 μL CH3CN, followed by a 33 μL of a solution of THF containing 1 […] of the internal standard, 6-ketoestradiol. The quenched aliquot was centrifuged for several minutes on bench-top centrifuge and 80 μl of the supernatant was analyzed for the esterase-hydrolysis product (the corresponding E2-16α-carboxylic acid: E16-1,0 8; E16-2,0 23; E16-3,0 35) by reversed phase HPLC with system H-10 for E2-16-1 and E2-16-2 esters, and with system H-15 for E2-16-3 esters. The E2-16α-carboxyl products, (Rt for E16-1,0 8=7 min and for E16-2,0 23=9 min, E16-3,0 35=6.5 min) and the internal standard, 6-ketoestradiol (Rt 7.5 min in system H-10, and 5 min in system H-15) were quantified at 280 nm on the HPLC UV detector. The UV absorbance was converted to moles of product by comparison to standard curves and corrected for recovery of the internal standard, 6-ketoestradiol. The velocity of the reaction for each ester, in nmol product/min/ml/ was then normalized to the ester, E16-1,2 10 and is shown in Table 1 as relative hydrolytic activity (RHA). The enzymatic velocity for the hydrolysis of E16-1,2 10 was 0.9±0.2 (S.D.) nmol product/min/ml over the various experiments. Since all of the esters could not be tested simultaneously, in each case we compared the rate of hydrolysis of the test compound to that of E16-1,2 10 run concurrently. All compounds were tested in triplicate in 3 separate experiments.

human ERβ and ERα = assay: Competitive binding to human ERβ and ERα expressed in Escherichia coli lysates (ratio of RBAs); details: RBAs (E2 = 100) in E. coli lysates expressing human ERβ and ERα separately

Structure (SMILES)	RSA (estrogenic potency compared to E2) ([1]; Ishikawa AlkP) [%]	Ishikawa Cell AlkP RSA (relative stimulatory activity) [1]	ER RBA (relative binding affinity) [2]	binding to the ER [2]	Esterase RHA (relative hydrolytic activity) [3]	RBA [2] [%]	ERα/ERβ (ratio of the RBAs) (human ERβ and ERα)
C[C@]12CC[C@@H]3c4ccc(O)cc4CC[C@H]3[C@@H]1CCC2=O [Compound E1, estrone, reference compound]	7	7 ± 2	–	–	–	–	–
C[C@]12CC[C@@H]3c4ccc(O)cc4CC[C@H]3[C@@H]1C[C@@H](C(=O)O)[C@@H]2O [E16-1,0, 3,17β-dihydroxyestra-1,3,5(10)-trien-16α-carboxylic acid]	–	0	0	None of the parent carboxylic acid analogs, E16-1,0, E16-2,0 and E16-3,0 showed significant binding	–	–	–
C[C@]12CC[C@@H]3c4ccc(O)cc4CC[C@H]3[C@@H]1C[C@@H](C(=O)OCC(F)F)[C@@H]2O [E16-1,2F2, 2′,2′-Difluoroethyl (3,17β-dihydroxyestra-1,3,5(10)-trien-16α-yl) formate]	–	4 ± 1	10 ± 3	–	2,350 ± 275	10	1,800
C[C@]12CC[C@@H]3c4ccc(O)cc4CC[C@H]3[C@@H]1C[C@@H](C(=O)OCC(F)(F)F)[C@@H]2O [E16-1,2F3, 2′,2′,2′-Trifluoroethyl (3,17β-dihydroxyestra-1,3,5(10)-trien-16α-yl) formate]	–	3 ± 1	7 ± 1	–	8,200 ± 1,800	7	–
CCCOC(=O)[C@@H]1C[C@H]2[C@@H]3CCc4cc(O)ccc4[C@H]3CC[C@]2(C)[C@H]1O [E16-1,3, Propyl (3,17β-dihydroxyestra-1,3,5(10)-trien-16α-yl) formate]	–	2 ± 0	34 ± 9	–	230 and 230 ± 50	–	–
CC(C)OC(=O)[C@@H]1C[C@H]2[C@@H]3CCc4cc(O)ccc4[C@H]3CC[C@]2(C)[C@H]1O [E16-1,3i, Isopropyl (3,17β-dihydroxyestra-1,3,5(10)-trien-16α-yl) formate]	–	0.1 ± 0.06	7 ± 4	–	140 and 140 ± 10	7	–
CCCCOC(=O)[C@@H]1C[C@H]2[C@@H]3CCc4cc(O)ccc4[C@H]3CC[C@]2(C)[C@H]1O [E16-1,4, n-Butyl (3,17β-dihydroxyestra-1,3,5(10)-trien-16α-yl) formate]	–	1 ± 0	28 ± 17	–	350 ± 50	28	–
CC(C)(C)COC(=O)[C@@H]1C[C@H]2[C@@H]3CCc4cc(O)ccc4[C@H]3CC[C@]2(C)[C@H]1O [E16-1,5neo]	–	1 ± 0.6	14 ± 3	–	50 and 50 ± 5	7	–
C[C@]12CC[C@@H]3c4ccc(O)cc4CC[C@H]3[C@@H]1C[C@@H](CC(=O)O)[C@@H]2O [E16-2,0, 3,17β-Dihydroxyestra-1,3,5(10)-trien-16α-yl acetic acid]	–	0	0	None of the parent carboxylic acid analogs, E16-1,0, E16-2,0 and E16-3,0 showed significant binding	–	–	–
COC(=O)C[C@@H]1C[C@H]2[C@@H]3CCc4cc(O)ccc4[C@H]3CC[C@]2(C)[C@H]1O [E16-2,1, Methyl 3,17β-dihydroxyestra-1,3,5(10)-trien-16α-yl acetate]	–	0.5 ± 0.1	5 ± 2	–	340 ± 30	5	–
CCOC(=O)C[C@@H]1C[C@H]2[C@@H]3CCc4cc(O)ccc4[C@H]3CC[C@]2(C)[C@H]1O [E16-2,2, Ethyl (3,17β-dihydroxyestra-1,3,5(10)-trien-16α-yl) acetate]	–	0.3 ± 0.1	5 ± 1	–	700 ± 120	5	–
C[C@]12CC[C@@H]3c4ccc(O)cc4CC[C@H]3[C@@H]1C[C@@H](CCC(=O)O)[C@@H]2O [E16-3,0, 3-(3,17β-dihydroxyestra-1,3,5(10)-trien-16α-yl)propanioc acid]	–	0	0.1 ± 0.1	None of the parent carboxylic acid analogs, E16-1,0, E16-2,0 and E16-3,0 showed significant binding	–	–	–
COC(=O)CC[C@@H]1C[C@H]2[C@@H]3CCc4cc(O)ccc4[C@H]3CC[C@]2(C)[C@H]1O [E16-3,1, Methyl 3-(3,17β-dihydroxyestra-1,3,5(10)-trien-16α-yl)propanoate]	–	0	1 ± 1	–	910 ± 100	1	–
